{"source": "paper PMC11946679", "about": "(Toxics, 2025)", "system": "human peripheral blood lymphocytes", "assay": "CBMN cytome assay: micronuclei, nuclear buds, nucleoplasmic bridges", "conditions": "3 h", "key": {"[1]": {"conditions": "1× + IRI 9.0 mg/L, propolis 1.36 mg/L, galangin 0.02 mg/L"}, "[2]": {"conditions": "1× alone, propolis 1.36 mg/L, galangin 0.02 mg/L"}, "[3]": {"conditions": "5× + IRI 9.0 mg/L, propolis 6.8 mg/L, galangin […]"}, "[4]": {"conditions": "5× alone, propolis 6.8 mg/L, galangin […]"}}, "method": "The CBMN assay was performed in line with standard protocols [8, 23].\nTo collect the blood sample, lithium heparin-coated tubes were used (BD vacutainer® with LH 170 I.U., Becton Dickinson: BD-Plymouth PL6 78P, UK).\nThere were 15 experimental groups altogether. The same experimental design was applied in two independent trials, each of which had two replicate cultures per experimental group; therefore, four replicate cultures for every single experimental group were established.\nTo induce cell division prior to exposure to the test chemicals, lymphocytes were stimulated with the mitogen phytohemagglutinin (PHA). Cultures were kept in a humidified atmosphere of 5% CO2 at 37 °C.\nThey started 41 h after PHA stimulation and lasted for 3 h at 37 °C.\nUpon completion of exposure, lymphocyte cultures were centrifuged at 100× g. […] This procedure was timed for the 44th hour of lymphocyte cultivation, which represents a critical point for adding of cytoB to hinder cytokinesis and obtain binucleated cells. All treated and control cultures were further maintained at 37 °C until the end of the 72nd hour of cultivation, according to the above-mentioned standard protocols.\nThe first step in the preparation of microscopic slides was harvesting of cells by centrifugation (100× g), followed by treatment with 0.075 mol/L potassium chloride and succeeded by centrifugation. The sediments of cells were repeatedly fixed with methanol/acetic acid (3:1 v/v) followed by centrifugation. The final lymphocyte suspension was pipetted onto clean microscope slides. For staining, 5% aqueous solution of Giemsa dye was used. Slides were screened using a light microscope at 1000× magnification. For morphological discrimination of micronuclei (MNi), nuclear buds (NBs), nucleoplasmic bridges (NPBs) and cells in apoptosis or necrosis, the criteria by Fenech et al. [25] and Fenech [23] were applied. To determine their frequencies, per experimental point, a total of 4 × 1000 binucleated (BN) cells were scored.\nThis value was first used to estimate the number of MNi required to reach a decrease and an increase considered significant at a 5% significance level."}
{"compound": "O=c1c(O)c(-c2ccccc2)oc2cc(O)cc(O)c12", "note": "[Galangin]", "values": [{"measurement": "Distribution of BNMN Cells with 1 MN", "setting": "[1]", "result": "45 c,p1,p5,p10,g1,g5,g10,p1+iri, p5+iri, p10+iri"}, {"measurement": "Distribution of BNMN Cells with 2 MN", "setting": "[1]", "result": 1}, {"measurement": "Distribution of BNMN Cells with 3 MN", "setting": "[1]", "result": 0}, {"measurement": "Distribution of BNMN Cells with 4 MN", "setting": "[1]", "result": 0}, {"measurement": "Distribution of BNNB Cells with 1 NB", "setting": "[1]", "result": "33 c,p1,p5, p10,g1,g5,g10, p1+iri, p10+iri"}, {"measurement": "Distribution of BNNB Cells with 2 NB", "setting": "[1]", "result": 2}, {"measurement": "Distribution of BNNPB Cells with 1 NPB", "setting": "[1]", "result": 0}, {"measurement": "Distribution of BNNPB Cells with 2 NPB", "setting": "[1]", "result": 0}, {"measurement": "Micronuclei (MNi) Mean (BNMN)1000 ± SD", "setting": "[1]", "result": "11.50 ± 3.70 c,p1,p5,p10,g1,g5, g10,p1+iri, p5+iri, p10+iri"}, {"measurement": "Micronuclei (MNi) Mean (MNi)1000 ± SD", "setting": "[1]", "result": "11.75 ± 4.11 c,p1,p5,p10,g1,g5,g10, p1+iri"}, {"measurement": "Micronuclei (MNi) Total (BNMN)4000", "setting": "[1]", "result": "46 c,p1,p5,p10,g1,g5,g10, p1+iri, p5+iri, p10+iri"}, {"measurement": "Micronuclei (MNi) Total (MNi)4000", "setting": "[1]", "result": "47 c,p1,p5,p10,g1,g5, g10,p1+iri"}, {"measurement": "Nuclear Buds (NBs) Mean (BNNB)1000 ± SD", "setting": "[1]", "result": "8.75 ± 0.96 c,p1,p5,p10, g1,g5,g10, p1+iri,p5+iri, p10+iri"}, {"measurement": "Nuclear Buds (NBs) Mean (NBs)1000 ± SD", "setting": "[1]", "result": "9.25 ± 1.50 c,p1,p5,p10,g1,g5,g10, p1+iri,p5+iri, p10+iri"}, {"measurement": "Nuclear Buds (NBs) Total (BNNB)4000", "setting": "[1]", "result": "35 c,p1,p5,p10, g1,g5,g10, p1+iri,p5+iri,p10+iri"}, {"measurement": "Nuclear Buds (NBs) Total (NBs)4000", "setting": "[1]", "result": "37 c,p1,p5, p10,g1,g5, g10, p1+iri, p5+iri, p10+iri"}, {"measurement": "Nucleoplasmic Bridges (NPBs) Mean (BNNPB)1000 ± SD", "setting": "[1]", "result": 0}, {"measurement": "Nucleoplasmic Bridges (NPBs) Mean (NPBs)1000 ± SD", "setting": "[1]", "result": 0}, {"measurement": "Nucleoplasmic Bridges (NPBs) Total (BNNPB)4000", "setting": "[1]", "result": 0}, {"measurement": "Nucleoplasmic Bridges (NPBs) Total (NPBs)4000", "setting": "[1]", "result": 0}, {"measurement": "Micronuclei (MNi) Mean (MNi)1000 ± SD", "setting": "1× + IRI 9.0 mg/L, propolis 1.36 mg/L, galangin 0.02 mg/L, listed as galangin", "result": 11.75}, {"measurement": "Distribution of BNMN Cells with 1 MN", "setting": "[2]", "result": 8}, {"measurement": "Distribution of BNMN Cells with 2 MN", "setting": "[2]", "result": 0}, {"measurement": "Distribution of BNMN Cells with 3 MN", "setting": "[2]", "result": 0}, {"measurement": "Distribution of BNMN Cells with 4 MN", "setting": "[2]", "result": 0}, {"measurement": "Distribution of BNNB Cells with 1 NB", "setting": "[2]", "result": 7}, {"measurement": "Distribution of BNNB Cells with 2 NB", "setting": "[2]", "result": 0}, {"measurement": "Distribution of BNNPB Cells with 1 NPB", "setting": "[2]", "result": 0}, {"measurement": "Distribution of BNNPB Cells with 2 NPB", "setting": "[2]", "result": 0}, {"measurement": "Micronuclei (MNi) Mean (BNMN)1000 ± SD", "setting": "[2]", "result": "2.00 ± 0.82"}, {"measurement": "Micronuclei (MNi) Mean (MNi)1000 ± SD", "setting": "[2]", "result": "2.00 ± 0.82"}, {"measurement": "Micronuclei (MNi) Total (BNMN)4000", "setting": "[2]", "result": 8}, {"measurement": "Micronuclei (MNi) Total (MNi)4000", "setting": "[2]", "result": 8}, {"measurement": "Nuclear Buds (NBs) Mean (BNNB)1000 ± SD", "setting": "[2]", "result": "1.75 ± 0.50"}, {"measurement": "Nuclear Buds (NBs) Mean (NBs)1000 ± SD", "setting": "[2]", "result": "1.75 ± 0.50"}, {"measurement": "Nuclear Buds (NBs) Total (BNNB)4000", "setting": "[2]", "result": 7}, {"measurement": "Nuclear Buds (NBs) Total (NBs)4000", "setting": "[2]", "result": 7}, {"measurement": "Nucleoplasmic Bridges (NPBs) Mean (BNNPB)1000 ± SD", "setting": "[2]", "result": 0}, {"measurement": "Nucleoplasmic Bridges (NPBs) Mean (NPBs)1000 ± SD", "setting": "[2]", "result": 0}, {"measurement": "Nucleoplasmic Bridges (NPBs) Total (BNNPB)4000", "setting": "[2]", "result": 0}, {"measurement": "Nucleoplasmic Bridges (NPBs) Total (NPBs)4000", "setting": "[2]", "result": 0}, {"measurement": "Micronuclei (MNi) Mean (MNi)1000 ± SD", "setting": "1× alone, propolis 1.36 mg/L, galangin 0.02 mg/L, listed as galangin", "result": 2.00}, {"measurement": "Distribution of BNMN Cells with 1 MN", "setting": "[3]", "result": "43 c,p1,p5, p10,g1,g5, g10,p1+iri, p5+iri, p10+iri"}, {"measurement": "Distribution of BNMN Cells with 2 MN", "setting": "[3]", "result": 1}, {"measurement": "Distribution of BNMN Cells with 3 MN", "setting": "[3]", "result": 0}, {"measurement": "Distribution of BNMN Cells with 4 MN", "setting": "[3]", "result": 0}, {"measurement": "Distribution of BNNB Cells with 1 NB", "setting": "[3]", "result": "32 c,p1,p5, p10,g1, g5,g10, p1+iri, p10+iri"}, {"measurement": "Distribution of BNNB Cells with 2 NB", "setting": "[3]", "result": 0}, {"measurement": "Distribution of BNNPB Cells with 1 NPB", "setting": "[3]", "result": 0}, {"measurement": "Distribution of BNNPB Cells with 2 NPB", "setting": "[3]", "result": 0}, {"measurement": "Micronuclei (MNi) Mean (BNMN)1000 ± SD", "setting": "[3]", "result": "11.00 ± 0.82 c,p1,p5,p10,g1,g5, g10,p1+iri, p5+iri"}, {"measurement": "Micronuclei (MNi) Mean (MNi)1000 ± SD", "setting": "[3]", "result": "11.25 ± 0.96 c,p1,p5,p10,g1,g5,g10, p1+iri"}, {"measurement": "Micronuclei (MNi) Total (BNMN)4000", "setting": "[3]", "result": "44 c,p1,p5,p10,g1,g5,g10, p1+iri, p5+iri"}, {"measurement": "Micronuclei (MNi) Total (MNi)4000", "setting": "[3]", "result": "45 c,p1,p5,p10,g1,g5, g10,p1+iri"}, {"measurement": "Nuclear Buds (NBs) Mean (BNNB)1000 ± SD", "setting": "[3]", "result": "8.00 ± 1.41 c,p1,p5,p10, g1,g5,g10, p1+iri,p10+iri"}, {"measurement": "Nuclear Buds (NBs) Mean (NBs)1000 ± SD", "setting": "[3]", "result": "8.00 ± 1.41 c,p1,p5,p10,g1,g5,g10, p1+iri,p10+iri"}, {"measurement": "Nuclear Buds (NBs) Total (BNNB)4000", "setting": "[3]", "result": "32 c,p1,p5,p10, g1,g5,g10, p1+iri, p10+iri"}, {"measurement": "Nuclear Buds (NBs) Total (NBs)4000", "setting": "[3]", "result": "32 c,p1,p5, p10,g1,g5, g10, p1+iri, p10+iri"}, {"measurement": "Nucleoplasmic Bridges (NPBs) Mean (BNNPB)1000 ± SD", "setting": "[3]", "result": 0}, {"measurement": "Nucleoplasmic Bridges (NPBs) Mean (NPBs)1000 ± SD", "setting": "[3]", "result": 0}, {"measurement": "Nucleoplasmic Bridges (NPBs) Total (BNNPB)4000", "setting": "[3]", "result": 0}, {"measurement": "Nucleoplasmic Bridges (NPBs) Total (NPBs)4000", "setting": "[3]", "result": 0}, {"measurement": "Micronuclei (MNi) Mean (MNi)1000 ± SD", "setting": "5× + IRI 9.0 mg/L, propolis 6.8 mg/L, galangin […], listed as galangin", "result": 11.25}, {"measurement": "Distribution of BNMN Cells with 1 MN", "setting": "[4]", "result": 9}, {"measurement": "Distribution of BNMN Cells with 2 MN", "setting": "[4]", "result": 0}, {"measurement": "Distribution of BNMN Cells with 3 MN", "setting": "[4]", "result": 0}, {"measurement": "Distribution of BNMN Cells with 4 MN", "setting": "[4]", "result": 0}, {"measurement": "Distribution of BNNB Cells with 1 NB", "setting": "[4]", "result": 9}, {"measurement": "Distribution of BNNB Cells with 2 NB", "setting": "[4]", "result": 0}, {"measurement": "Distribution of BNNPB Cells with 1 NPB", "setting": "[4]", "result": 0}, {"measurement": "Distribution of BNNPB Cells with 2 NPB", "setting": "[4]", "result": 0}, {"measurement": "Micronuclei (MNi) Mean (BNMN)1000 ± SD", "setting": "[4]", "result": "2.25 ± 0.50"}, {"measurement": "Micronuclei (MNi) Mean (MNi)1000 ± SD", "setting": "[4]", "result": "2.25 ± 0.50"}, {"measurement": "Micronuclei (MNi) Total (BNMN)4000", "setting": "[4]", "result": 9}, {"measurement": "Micronuclei (MNi) Total (MNi)4000", "setting": "[4]", "result": 9}, {"measurement": "Nuclear Buds (NBs) Mean (BNNB)1000 ± SD", "setting": "[4]", "result": "2.25 ± 0.96"}, {"measurement": "Nuclear Buds (NBs) Mean (NBs)1000 ± SD", "setting": "[4]", "result": "2.25 ± 0.96"}, {"measurement": "Nuclear Buds (NBs) Total (BNNB)4000", "setting": "[4]", "result": 9}, {"measurement": "Nuclear Buds (NBs) Total (NBs)4000", "setting": "[4]", "result": 9}, {"measurement": "Nucleoplasmic Bridges (NPBs) Mean (BNNPB)1000 ± SD", "setting": "[4]", "result": 0}, {"measurement": "Nucleoplasmic Bridges (NPBs) Mean (NPBs)1000 ± SD", "setting": "[4]", "result": 0}]}
